The record followed here is patent US12077503B2, “Substituted cyclic amides and their use as herbicides” (FMC CORPORATION, priority 2015, dated 2024).

What all share (format): in vivo
Assay [1] has as its system wheat (Triticum aestivum). Put plainly: Test A postemergence. Conditions: Triticum aestivum, post-emergence, 240 h, 125 g ai/ha, visual injury after approximately 10 d, read-out: Plant response rating, Wheat. In a few lines:
(§1)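 Ratings of 0 (no effect) to 100 (complete control) come from visual comparison with untreated controls roughly 10 d after treatment. Test chemicals, formulated in a non-phytotoxic solvent mixture with surfactant, were applied either as a preemergence directed soil spray on seeded soil or postemergence to one- to two-leaf plants 2 to 10 cm tall.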

The test system of assay [2] is ragweed (common ragweed, Ambrosia elatior). As to the kind of experiment: Test A postemergence. Conditions: Ambrosia artemisiifolia, post-emergence, 240 h, 125 g ai/ha, visual injury after approximately 10 d, read-out: Plant response rating, Ragweed. In a few lines:
as §1

In assay [3] the test system is Galium (catchweed bedstraw, Galium aparine). As to the kind of experiment: Test A postemergence. Conditions: Galium, post-emergence, 240 h, 125 g ai/ha, visual injury after approximately 10 d, read-out: Plant response rating, Galium. In short, it runs like this: as §1
Another assay has as its system corn (Zea mays). As to the kind of experiment: Test A postemergence. Particulars: Zea mays, post-emergence, 240 h, 125 g ai/ha, visual injury after approximately 10 d. In short, it runs like this:
as §1

Assay [4] has as its system giant foxtail (Setaria faberii). As to the kind of experiment: Test A postemergence. Particulars: Setaria faberi, post-emergence, 240 h, 125 g ai/ha, visual injury after approximately 10 d, read-out: Plant response rating, Foxtail, Giant. In a few lines:
as §1

Assay [5] has as its system pigweed (Amaranthus retroflexus). As to the kind of experiment: Test A postemergence. Particulars: Amaranthus retroflexus, post-emergence, 240 h, 125 g ai/ha, visual injury after approximately 10 d, read-out: Plant response rating, Pigweed. In short, it runs like this:
as §1

In assay [6] the test system is ryegrass, Italian (Italian ryegrass, Lolium multiflorum). Put plainly: Test A postemergence. Particulars: Lolium multiflorum, post-emergence, 240 h, 125 g ai/ha, visual injury after approximately 10 d, read-out: Plant response rating, Ryegrass, Italian. In a few lines:
as §1

In assay [7] the test system is Kochia (Kochia scoparia). As to the kind of experiment: Test A postemergence. Particulars: Bassia scoparia, post-emergence, 240 h, 125 g ai/ha, visual injury after approximately 10 d, read-out: Plant response rating, Kochia. In short, it runs like this:
as §1

The test system of assay [8] is blackgrass (Alopecurus myosuroides). Put plainly: Test A postemergence. Particulars: Alopecurus myosuroides, post-emergence, 240 h, 125 g ai/ha, visual injury after approximately 10 d, read-out: Plant response rating, Blackgrass. In a few lines:
as §1

In assay [9] the test system is barnyardgrass (Echinochloa crus-galli). As to the kind of experiment: Test A postemergence. Particulars: Echinochloa crus-galli, post-emergence, 240 h, 125 g ai/ha, visual injury after approximately 10 d, read-out: Plant response rating, Barnyardgrass. In a few lines:
as §1

The test system of assay [10] is ragweed (common ragweed, Ambrosia elatior). As to the kind of experiment: Test A preemergence. Particulars: Ambrosia artemisiifolia, pre-emergence, 240 h, preemergence; for pest or weed control at 125 g/ha: 125 g ai/ha, 0 to 100 scale where 0 is no effect and 100 is complete control; for pest or weed control at 500 g/ha: 500 g ai/ha. In a few lines:
as §1

Assay [11] relates to giant foxtail (Setaria faberii). As to the kind of experiment: Test A preemergence. Particulars: Setaria faberi, pre-emergence, 240 h, preemergence; for pest or weed control at 125 g/ha: 125 g ai/ha, 0 to 100 scale where 0 is no effect and 100 is complete control; for pest or weed control at 500 g/ha: 500 g ai/ha. In a few lines: as §1
Assay [12] has as its system pigweed (Amaranthus retroflexus). As to the kind of experiment: Test A preemergence. Particulars: Amaranthus retroflexus, pre-emergence, 240 h, preemergence; for pest or weed control at 125 g/ha: 125 g ai/ha, 0 to 100 scale where 0 is no effect and 100 is complete control; for pest or weed control at 500 g/ha: 500 g ai/ha.
The subject of assay [13] is ryegrass, Italian (Italian ryegrass, Lolium multiflorum). Put plainly: Test A preemergence. Conditions: Lolium multiflorum, pre-emergence, 240 h, preemergence; for pest or weed control at 125 g/ha: 125 g ai/ha, 0 to 100 scale where 0 is no effect and 100 is complete control; for pest or weed control at 500 g/ha: 500 g ai/ha. In short, it runs like this: as §1
In assay [14] the test system is Kochia (Kochia scoparia). Put plainly: Test A preemergence. Conditions: Bassia scoparia, pre-emergence, 240 h, preemergence; for pest or weed control at 125 g/ha: 125 g ai/ha, 0 to 100 scale where 0 is no effect and 100 is complete control; for pest or weed control at 500 g/ha: 500 g ai/ha. In a few lines: as §1
For assay [15], the system named is barnyardgrass (Echinochloa crus-galli). Put plainly: Test A preemergence. Particulars: Echinochloa crus-galli, pre-emergence, 240 h, preemergence; for pest or weed control at 125 g/ha: 125 g ai/ha, 0 to 100 scale where 0 is no effect and 100 is complete control; for pest or weed control at 500 g/ha: 500 g ai/ha. In a few lines: as §1
Setting [16] is: postemergence, 0 to 100 scale (0 no effect, 100 complete control).
Setting [17] is: Postemergence, 0 to 100 scale where 0 is no effect and 100 is complete control.

Read-outs that look alike come from different tables or passages of the source.

On to `O=C1NC[C@H](c2cscn2)[C@H]1C(=O)Nc1ccccc1F` [Compound 752], for which the plant injury at 125 g/ha in assay [1] (setting [16]) was 0%. The pest or weed control at 125 g/ha amounted to 20% in assay [2] (setting [16]); 70% in [3] (setting [16]); 50% in assay [4] (setting [16]); 0% in assay [5] (setting [16]); 20% in assay [6] (setting [16]); 40% with Kochia (Kochia scoparia) [7] (setting [16]). Also, the pest or weed control at 125 g/ha in [8] (setting [16]) came to 0%; in assay [9] (setting [16]), 60%; in assay [10] (visual rating after approx. 10 d, read-out: Plant response rating, Ragweed) it was 40%; in [11] (visual rating after approx. 10 d, read-out: Plant response rating, Foxtail, Giant), 90%; in assay [12] (visual rating after approx. 10 d, read-out: Plant response rating, Pigweed) it was 20%; in [13] (visual rating after approx. 10 d, read-out: Plant response rating, Ryegrass, Italian), 20%. In addition, the pest or weed control at 125 g/ha is 60% with Kochia (Kochia scoparia) [14] (visual rating after approx. 10 d, read-out: Plant response rating, Kochia) and 30% in [15] (visual rating after approx. 10 d, read-out: Plant response rating, Barnyardgrass). Moreover, the Corn plant response rating (crop injury, 0 = no effect, 100 = complete kill) at 125 g/ha in the assay on corn (Zea mays) (setting [16]) came to 0%. Also, the pest or weed control at 500 g/ha in [10] (0 to 100 scale, 0 = no effect, 100 = complete control, read-out: Plant response rating, Ragweed) is 60%; in [11] (0 to 100 scale, 0 = no effect, 100 = complete control, read-out: Plant response rating, Foxtail, Giant), 90%; in assay [12] (0 to 100 scale, 0 = no effect, 100 = complete control, read-out: Plant response rating, Pigweed), 40%; in assay [13] (0 to 100 scale, 0 = no effect, 100 = complete control, read-out: Plant response rating, Ryegrass, Italian), 30%; with Kochia (Kochia scoparia) [14] (0 to 100 scale, 0 = no effect, 100 = complete control, read-out: Plant response rating, Kochia), 70%; in [15] (0 to 100 scale, 0 = no effect, 100 = complete control, read-out: Plant response rating, Barnyardgrass), 90%.
Take `O=C(Nc1cccc(Cl)c1F)[C@H]1C(=O)N(C2CC2)CC[C@@H]1c1cccc(C(F)(F)F)c1` [Compound 926]: the plant injury at 125 g/ha in [1] (setting [17]) was found to be 0%. The pest or weed control at 125 g/ha in assay [2] (setting [17]) is 0%; in assay [3] (setting [17]) it was 0%; in assay [4] (setting [17]), 40%; in assay [5] (setting [17]) it was 0%; in assay [6] (setting [17]), 0%; in the assay with Kochia (Kochia scoparia) [7] (setting [17]) it was 0%. Moreover, the pest or weed control at 125 g/ha in [8] (setting [17]) turned out to be 0%; in assay [9] (setting [17]) it was 40%; in [10] (read-out: Ragweed plant response rating), 0%; in assay [11] (read-out: Foxtail, Giant plant response rating), 80%; in [12] (read-out: Pigweed plant response rating) it was 0%; in assay [13] (read-out: Ryegrass, Italian plant response rating), 0%. In addition, the pest or weed control at 125 g/ha in the assay with Kochia (Kochia scoparia) [14] (read-out: Kochia plant response rating) came out at 0%; in assay [15] (read-out: Barnyardgrass plant response rating), 30%. This molecule displayed a Corn plant response rating (crop injury, 0 = no effect, 100 = complete kill) at 125 g/ha in the assay on corn (Zea mays) (setting [17]) of 0%. Besides, the pest or weed control at 500 g/ha in [10] (visual injury rating about 10 d after treatment, 0 to 100 scale (0 no effect, 100 complete control), read-out: Ragweed plant response rating) came out at 0%; in assay [11] (visual injury rating about 10 d after treatment, 0 to 100 scale (0 no effect, 100 complete control), read-out: Foxtail, Giant plant response rating), 90%; in [12] (visual injury rating about 10 d after treatment, 0 to 100 scale (0 no effect, 100 complete control), read-out: Pigweed plant response rating), 0%; in assay [13] (visual injury rating about 10 d after treatment, 0 to 100 scale (0 no effect, 100 complete control), read-out: Ryegrass, Italian plant response rating), 0%; with Kochia (Kochia scoparia) [14] (visual injury rating about 10 d after treatment, 0 to 100 scale (0 no effect, 100 complete control), read-out: Kochia plant response rating) it was 0%; in assay [15] (visual injury rating about 10 d after treatment, 0 to 100 scale (0 no effect, 100 complete control), read-out: Barnyardgrass plant response rating) it was 90%.
